Each block holds one compound with its values, some of them ahead of it.
Experiments:
Conditions in all cases: stereoisomer not certain
[1] = HILIC, Merck SeQuant ZIC-HILIC, 150 × 2.1 mm, 5 µm, 0.75 mL/min, estimated dead time 0.44 min; A: water + 0.1% acetic acid + 10 mM ammonium acetate, pH 4; B: 5% water + 95% acetonitrile + 0.1% acetic acid + 10 mM ammonium acetate, pH 4; gradient (min/%B) 0/95 5/95 20/57 25/57 30/95 40/95
[2] = RP, Waters CORTECS T3, 100 × 2.1 mm, 2.7 µm, 0.3 mL/min, estimated dead time 0.73 min; A: water + 0.1% formic acid, pH 3; B: methanol + 0.1% formic acid, pH 3; gradient (min/%B) 0/0 5/0 25/100 30/100 30.1/0 35/0
[3] = as above; remark: listed apart in the source
[4] = HILIC, Thermo Scientific Accucore HILIC, 100 × 2.1 mm, 2.6 µm, 0.5 mL/min, estimated dead time 0.44 min; A: water + 0.1% formic acid + 10 mM ammonium formate, pH 3; B: 5% water + 95% acetonitrile + 0.1% formic acid + 10 mM ammonium formate, pH 3; gradient (min/%B) 0/95 5/95 20/57 25/57 30/95 40/95
[5] = RP, Waters CORTECS T3, 100 × 2.1 mm, 2.7 µm, 0.2 mL/min, estimated dead time 1.1 min; A: water + 0.1% formic acid, pH 3; B: methanol + 0.1% formic acid, pH 3; gradient (min/%B) 0/0 1/0 6/5 30/100 35/100 35.1/0 40/0
[6] = HILIC, Merck SeQuant ZIC-HILIC, 150 × 2.1 mm, 5 µm, 0.75 mL/min, estimated dead time 0.44 min; A: water + 10 mM ammonium formate, pH 6; B: 5% water + 95% acetonitrile + 10 mM ammonium formate, pH 6; gradient (min/%B) 0/95 5/95 20/57 25/57 30/95 40/95
[7] = RP, Waters CORTECS T3, 100 × 2.1 mm, 2.7 µm, 0.25 mL/min, estimated dead time 0.88 min; A: water + 0.1% formic acid, pH 3; B: methanol + 0.1% formic acid, pH 3; gradient (min/%B) 0/0 1/0 6/5 30/100 35/100 35.1/0 40/0
[8] = RP, Waters CORTECS T3, 100 × 2.1 mm, 2.7 µm, 0.1 mL/min, estimated dead time 2.2 min; A: water + 0.1% formic acid, pH 3; B: methanol + 0.1% formic acid, pH 3; gradient (min/%B) 0/0 1/0 6/5 30/100 35/100 35.1/0 40/0
[9] = RP, Waters CORTECS T3, 100 × 2.1 mm, 2.7 µm, 0.3 mL/min, estimated dead time 0.73 min; A: water + 0.1% formic acid, pH 3; B: methanol + 0.1% formic acid, pH 3; gradient (min/%B) 0/5 5/5 25/100 30/100 30.1/5 35/5
[10] = RP, Waters ACQUITY UPLC BEH C18, 100 × 2.1 mm, 1.7 µm, 0.1 mL/min, estimated dead time 2.2 min; A: water + 0.1% formic acid, pH 3; B: methanol + 0.1% formic acid, pH 3; gradient (min/%B) 0/5 5/5 25/95 25.1/100 35/100 35.1/5 45/5
[11] = RP, Waters CORTECS T3, 100 × 2.1 mm, 2.7 µm, 0.25 mL/min, estimated dead time 0.88 min; A: water + 0.1% formic acid, pH 3; B: methanol + 0.1% formic acid, pH 3; gradient (min/%B) 0/5 5/5 25/95 25.1/100 35/100 35.1/5 45/5
[12] = RP, Waters ACQUITY UPLC BEH C18, 100 × 2.1 mm, 1.7 µm, 0.1 mL/min, estimated dead time 2.2 min; A: water + 0.1% formic acid, pH 3; B: methanol + 0.1% formic acid, pH 3; gradient (min/%B) 0/5 5/5 25/100 30/100 30.1/5 35/5
[13] = RP, Waters ACQUITY UPLC BEH C18, 100 × 2.1 mm, 1.7 µm, 0.2 mL/min, estimated dead time 1.1 min; A: water + 0.1% formic acid, pH 3; B: methanol + 0.1% formic acid, pH 3; gradient (min/%B) 0/5 5/5 25/100 30/100 30.1/5 35/5
[14] = RP, Waters ACQUITY UPLC BEH C18, 100 × 2.1 mm, 1.7 µm, 0.2 mL/min, estimated dead time 1.1 min; A: water + 0.025% formic acid + 20 mM ammonium acetate + 0.055% ammonium hydroxide, pH 7; B: methanol; gradient (min/%B) 0/5 5/5 25/100 30/100 30.1/5 35/5
[15] = RP, Waters CORTECS T3, 100 × 2.1 mm, 2.7 µm, 0.3 mL/min, estimated dead time 0.73 min; A: water + 0.1% formic acid, pH 3; B: methanol + 0.1% formic acid, pH 3; gradient (min/%B) 0/5 5/5 25/95 25.1/100 35/100 35.1/5 45/5
[16] = RP, Waters CORTECS T3, 100 × 2.1 mm, 2.7 µm, 0.15 mL/min, estimated dead time 1.5 min; A: water + 0.1% formic acid, pH 3; B: methanol + 0.1% formic acid, pH 3; gradient (min/%B) 0/0 1/0 6/5 30/100 35/100 35.1/0 40/0
[17] = RP, Waters CORTECS T3, 100 × 2.1 mm, 2.7 µm, 0.3 mL/min, estimated dead time 0.73 min; A: water + 0.1% formic acid, pH 3; B: methanol + 0.1% formic acid, pH 3; gradient (min/%B) 0/0 1/0 6/5 30/100 35/100 35.1/0 40/0

SMILES: CC(C)=CCNc1ncnc2nc[nH]c12 [N6-(DELTA2-ISOPENTENYL)-ADENINE]
LC retention time [1]: 0.62 min | LC retention time [2]: 12.7 min | LC retention time [3]: 12.8 min | LC retention time [4]: 0.92 min | LC retention time [5]: 15 min | LC retention time [6]: 0.64 min | LC retention time [7]: 14.2 min | LC retention time [8]: 13.4 min | LC retention time [9]: 11.8 min | LC retention time [10]: 17.3 min | LC retention time [11]: 12.6 min | LC retention time [12]: 16.9 min | LC retention time [13]: 13.4 min | LC retention time [14]: 15.4 min | LC retention time [15]: 12 min | LC retention time [16]: 16.5 min | LC retention time [17]: 13.6 min

SMILES: Cc1cc2nc3c(=O)[nH]c(=O)nc-3n(CC(O)C(O)C(O)CO)c2cc1C (stereo not drawn) [RIBOFLAVIN]
LC retention time [2]: 12.5 min | LC retention time [3]: 12.5 min | LC retention time [5]: 14.7 min | LC retention time [7]: 14 min | LC retention time [8]: 13.1 min | LC retention time [9]: 11.7 min | LC retention time [10]: 15.7 min | LC retention time [11]: 12.4 min | LC retention time [12]: 15.5 min | LC retention time [13]: 12.7 min | LC retention time [14]: 11.9 min | LC retention time [15]: 11.9 min | LC retention time [16]: 15.8 min | LC retention time [17]: 13.5 min

SMILES: CC(C)(CO)C(O)C(=O)NCCC(=O)O [D-PANTOTHENIC ACID]
LC retention time [1]: 9.3 min | LC retention time [2]: 8.53 min | LC retention time [3]: 8.6 min | LC retention time [4]: 4.93 min | LC retention time [5]: 9.51 min | LC retention time [6]: 10.5 min | LC retention time [7]: 8.69 min | LC retention time [8]: 7.4 min | LC retention time [9]: 5.2 min | LC retention time [11]: 6.32 min | LC retention time [12]: 11.5 min | LC retention time [13]: 8.01 min | LC retention time [14]: 1.46 min | LC retention time [15]: 5.14 min | LC retention time [16]: 10.9 min | LC retention time [17]: 7.94 min

SMILES: Nc1nc2nccnc2c(=O)[nH]1 [PTERIN]
LC retention time [1]: 5.43 min | LC retention time [2]: 2.96 min | LC retention time [3]: 3.11 min | LC retention time [4]: 3.39 min | LC retention time [5]: 4.26 min | LC retention time [6]: 5.74 min | LC retention time [9]: 1.73 min | LC retention time [11]: 2.11 min | LC retention time [12]: 4.78 min | LC retention time [13]: 2.44 min | LC retention time [14]: 1.41 min | LC retention time [15]: 1.68 min | LC retention time [16]: 5.95 min | LC retention time [17]: 2.75 min

SMILES: CC1NC(=O)NC1CCCCCC(=O)O (stereo not drawn) [DETHIOBIOTIN]
LC retention time [2]: 13.2 min | LC retention time [3]: 13.2 min | LC retention time [5]: 15.7 min | LC retention time [6]: 3.19 min | LC retention time [7]: 14.9 min | LC retention time [8]: 13.9 min | LC retention time [9]: 12.4 min | LC retention time [11]: 13.2 min | LC retention time [12]: 16.9 min | LC retention time [13]: 13.8 min | LC retention time [14]: 8.17 min | LC retention time [15]: 12.6 min | LC retention time [16]: 16.9 min | LC retention time [17]: 14.3 min

Next, values leading:

LC retention time [1]: 5.71 min | LC retention time [2]: 2.27 min | LC retention time [3]: 2.39 min | LC retention time [4]: 1.92 min | LC retention time [5]: 3.29 min | LC retention time [6]: 5.7 min | LC retention time [7]: 2.63 min | LC retention time [9]: 1.53 min | LC retention time [10]: 2.66 min | LC retention time [11]: 1.85 min | LC retention time [13]: 2.14 min | LC retention time [14]: 1.36 min | LC retention time [15]: 1.51 min | LC retention time [16]: 4.65 min | LC retention time [17]: 2.17 min
SMILES: O=c1[nH]c(=O)c2[nH]cnc2[nH]1 [XANTHINE]

LC retention time [2]: 10.5 min | LC retention time [3]: 10.5 min | LC retention time [4]: 6.71 min | LC retention time [5]: 12.2 min | LC retention time [7]: 11.4 min | LC retention time [8]: 10.7 min | LC retention time [9]: 9.17 min | LC retention time [10]: 14.3 min | LC retention time [11]: 9.94 min | LC retention time [12]: 14.2 min | LC retention time [13]: 10.9 min | LC retention time [14]: 5.96 min | LC retention time [15]: 9.2 min | LC retention time [16]: 13.6 min | LC retention time [17]: 10.7 min
SMILES: O=C(O)c1cc(=O)c2ccccc2[nH]1 [4-HYDROXY-2-QUINOLINECARBOXYLIC ACID]

LC retention time [2]: 16.1 min | LC retention time [3]: 16.1 min | LC retention time [4]: 8.63 min | LC retention time [5]: 19.3 min | LC retention time [6]: 8.69 min | LC retention time [7]: 18.6 min | LC retention time [8]: 17.1 min | LC retention time [9]: 15.5 min | LC retention time [10]: 20.2 min | LC retention time [11]: 16.4 min | LC retention time [12]: 19.7 min | LC retention time [13]: 16.9 min | LC retention time [14]: 15.8 min | LC retention time [15]: 15.9 min | LC retention time [16]: 20.4 min | LC retention time [17]: 18 min
SMILES: N[C@@H](Cc1cc(I)c(Oc2ccc(O)cc2)c(I)c1)C(=O)O [3,5-DIIODO-L-THYRONINE]

LC retention time [1]: 9.68 min | LC retention time [2]: 10.3 min | LC retention time [3]: 10.3 min | LC retention time [4]: 7.89 min | LC retention time [5]: 12 min | LC retention time [6]: 9.77 min | LC retention time [7]: 11.1 min | LC retention time [8]: 10.4 min | LC retention time [9]: 8.94 min | LC retention time [10]: 13.9 min | LC retention time [11]: 9.71 min | LC retention time [12]: 13.8 min | LC retention time [13]: 10.4 min | LC retention time [14]: 1.36 min | LC retention time [15]: 8.97 min | LC retention time [16]: 13.4 min | LC retention time [17]: 10.5 min
SMILES: O=C(O)c1cc(=O)c2cccc(O)c2[nH]1 [XANTHURENIC ACID]

LC retention time [1]: 8.28 min | LC retention time [2]: 13.2 min | LC retention time [3]: 13.2 min | LC retention time [5]: 15.7 min | LC retention time [6]: 8.49 min | LC retention time [7]: 14.8 min | LC retention time [8]: 13.9 min | LC retention time [9]: 12.3 min | LC retention time [11]: 13.2 min | LC retention time [12]: 17.3 min | LC retention time [13]: 14 min | LC retention time [14]: 9.66 min | LC retention time [15]: 12.5 min | LC retention time [16]: 17 min | LC retention time [17]: 14.2 min
SMILES: CC(=O)N[C@H](Cc1c[nH]c2ccccc12)C(=O)O [N-ACETYL-D-TRYPTOPHAN]

Reference: the RepoRT retention time repository (doi:10.1016/j.jchromb.2020.122105)
